From patent US9790235B2, “MK2 inhibitors and uses thereof” (Celgene CAR LLC, priority 2014, dated 2017)
Read-outs that look alike come from different tables or passages of the source.

Tests used:
MK2 [1] = biological target: T1, MK2 (Homo sapiens (Human), UniProt P49137); assay: MK2 cellular assay, total and phospho-Hsp27 (Serine 78) by MSD ELISA (Thp1); format: cell-based
How it was run: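 PMA-differentiated (10 ng/mL, 72 h) Thp-1 cells were pretreated with compound (top 3000 nM) for 1 h at 37 °C, then stimulated with 50 ng/mL LPS for 45 min. Lysate phospho-Hsp27 (Ser78) and total Hsp27 were read by MSD electrochemiluminescence ELISA, and the value is expressed as percent phospho/total signal per well.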

MK2 [2] = biological target: T1, MK2
[3] = biological target: p38α activated, mitogen-activated protein kinase-activated protein kinase 2 (MAPKAP-K2 or MK2) enzyme (Homo sapiens (Human), UniProt P49137); assay: MK2 Omnia continuous-read kinase assay for compound potency; format: biochemical
How it was run: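 Activated MK2 (0.4 nM) was run with S/T3-Sox peptide and ATP, each at 10 μM (ATP at apparent KM), and Sox fluorescence was followed every 71 s for 2 h at room temperature. IC50 came from linear initial rates after no-enzyme subtraction, and apparent kinact/KI from kobs of single-exponential fits.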

[4] = Thp-1 cells, 1 hour compound, 50 ng/mL LPS 45 minutes, p-HSP27 (Ser78)/total HSP27, read-out: pHSP27 signaling EC50
[5] = percentage of modified protein after 60 minutes at room temperature, 10-fold excess of compound, MALDI (I-1 to I-50), magnetic bead MALDI (I-51 to I-129)
[6] = [MK-2]=0.4 nM, [ATP]=10 μM, [ST3-Sox]=10 μM, read-out: MK2 IC50
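Throughout, for Mass Modification: covalent binding read from centroid mass shift of compound-treated versus untreated intact MK2, shift divided by compound molecular weight, giving fraction of total protein bound.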

p38α activated, mitogen-activated protein kinase-activated protein kinase 2 (MAPKAP-K2 or MK2) enzyme, sequence (P49137 whole entry): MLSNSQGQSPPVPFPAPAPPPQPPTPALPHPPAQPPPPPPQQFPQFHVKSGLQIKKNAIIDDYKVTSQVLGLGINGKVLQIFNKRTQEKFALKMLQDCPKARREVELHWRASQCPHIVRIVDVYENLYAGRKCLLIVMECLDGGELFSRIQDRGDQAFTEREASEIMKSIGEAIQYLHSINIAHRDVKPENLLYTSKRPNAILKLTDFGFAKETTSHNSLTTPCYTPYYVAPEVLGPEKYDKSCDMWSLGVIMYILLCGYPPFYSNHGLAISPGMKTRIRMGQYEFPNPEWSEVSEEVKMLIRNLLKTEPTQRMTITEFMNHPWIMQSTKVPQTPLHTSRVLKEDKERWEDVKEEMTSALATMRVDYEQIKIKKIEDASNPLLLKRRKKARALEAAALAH
T1 sequence (P49137 whole entry): as above

| SMILES | EC50 (MK2 [1]; [4]) [nM] | Mass Modification (MK2 [2]) | IC50 ([3]; read-out: MK2 IC50) [nM] | Mass Modification (MK2 [2]; [5]) | IC50 [3, 6] [nM] | EC50 (MK2 [1]) [nM] | IC50 [3] [nM] |
| --- | --- | --- | --- | --- | --- | --- | --- |
| C[C@@H]1CNc2c(sc3ccc4nc(Oc5nc(Cl)nc6c5CN(C)CC6)ccc4c23)C(=O)N1 [I-126, (R)-3-((2-chloro-6-methyl-5,6,7,8-tetrahydropyrido[4,3-d]pyrimidin-4-yl)oxy)-10-methyl-9,10,11,12-tetrahydro-8H-[1,4]diazepino[5′,6′:4,5]thieno[3,2-f]quinolin-8-one] | < 100 | E (key: E: mass modification of ≧70%; F: mass modification of 31-69%; G: mass modification ≦30%) | < 100 | – | – | – | – |
| O=C1N[C@H](CO)CNc2c1sc1ccc3nc(Nc4cc(F)ncn4)ccc3c21 [I-17, (S)-3-((6-fluoropyrimidin-4-yl)amino)-10-(hydroxymethyl)-9,10,11,12-tetrahydro-8H-[1,4]diazepino[5′,6′:4,5]thieno[3,2-f]quinolin-8-one] | > 1000 | – | – | F (mass modification of 31-69%) | < 100 | – | – |
| C[C@@H]1CNc2c(sc3ccc4nc(Oc5nc(Cl)ncc5CN5CC6CC6C5)ccc4c23)C(=O)N1 (stereo partly drawn) [I-83, ((1OR)-3-((5-(3-azabicyclo[3.1.0]hexan-3-yl)methyl)-2-chloropyrimidin-4-yl)oxy)-10-methyl-9,10,11,12-tetrahydro-8H-[1,4]diazepino[5′,6′:4,5]thieno[3,2-f]quinolin-8-one] | < 100 | – | – | E (mass modification of ≧70%) | 101 to 500 | – | – |
| C[C@@H]1CNc2c(sc3ccc4nc(N(C)c5nc(Cl)ncc5C(N)=O)ccc4c23)C(=O)N1 [I-34, (R)-2-chloro-4-(methyl(10-methyl-8-oxo-9,10,11,12-tetrahydro-8H-[1,4]diazepino[5′,6′:4,5]thieno[3,2-f]quinolin-3-yl)amino)pyrimidine-5-carboxamide] | > 1000 | – | – | G (mass modification ≦30%) | 501 to 999 | – | – |
| C[C@@H]1CNc2c(sc3ccc4nc(Oc5nc(Cl)nc6c5CS(=O)(=O)CC6)ccc4c23)C(=O)N1 [I-105, (R)-3-((2-chloro-6,6-dioxido-7,8-dihydro-5H-thiopyrano[4,3-d]pyrimidin-4-yl)oxy)-10-methyl-9,10,11,12-tetrahydro-8H-[1,4]diazepino[5′,6′:4,5]thieno[3,2-f]quinolin-8-one] | 101 to 500 | – | – | E (mass modification of ≧70%) | < 100 | – | – |
| C[C@@H]1CNc2c(sc3ccc4nc(Oc5nc(Cl)ncc5Br)ccc4c23)C(=O)N1 [I-116, (R)-3-((5-bromo-2-chloropyrimidin-4-yl)oxy)-10-methyl-9,10,11,12-tetrahydro-8H-[1,4]diazepino[5′,6′:4,5]thieno[3,2-f]quinolin-8-one] | < 100 | – | – | E (mass modification of ≧70%) | < 100 | – | – |
| C[C@@H]1CNc2c(sc3ccc4nc(Oc5nc(Cl)ncc5CN5C6CCC5COC6)ccc4c23)C(=O)N1 [I-114, (R)-3-((5-((3-oxa-8-azabicyclo[3.2.1]octan-8-yl)methyl)-2-chloropyrimidin-4-yl)oxy)-10-methyl-9,10,11,12-tetrahydro-8H-[1,4]diazepino[5′,6′:4,5]thieno[3,2-f]quinolin-8-one] | – | – | – | E (mass modification of ≧70%) | – | < 100 | 101 to 500 |
| C[C@@H]1CNc2c(sc3ccc4nc(Nc5cc(F)nc(OC6CCCN(C)C6)n5)ccc4c23)C(=O)N1 (stereo partly drawn) [I-47, (10R)-3-((6-fluoro-2-((1-methylpiperidin-3-yl)oxy)pyrimidin-4-yl)amino)-10-methyl-9,10,11,12-tetrahydro-8H-[1,4]diazepino[5′,6′:4,5]thieno[3,2-f]quinolin-8-one] | – | – | – | F (mass modification of 31-69%) | < 100 | 101 to 500 | – |
| C[C@@H]1CNc2c(sc3ccc4nc(Nc5nc(Cl)ncc5C(=O)N5CC[C@@H](N(C)C)C5)ccc4c23)C(=O)N1 [I-24, (R)-3-((2-chloro-5-((R)-3-(dimethylamino)pyrrolidine-1-carbonyl)pyrimidin-4-yl)amino)-10-methyl-9,10,11,12-tetrahydro-8H-[1,4]diazepino[5′,6′:4,5]thieno[3,2-f]quinolin-8-one] | > 1000 | – | – | G (mass modification ≦30%) | 501 to 999 | – | – |
| O=C1N[C@H](CO)CNc2c1sc1ccc3nc(Nc4cc(Cl)ncn4)ccc3c21 [I-22, (S)-3-((6-chloropyrimidin-4-yl)amino)-10-(hydroxymethyl)-9,10,11,12-tetrahydro-8H-[1,4]diazepino[5′,6′:4,5]thieno[3,2-f]quinolin-8-one] | 501 to 999 | – | – | F (mass modification of 31-69%) | < 100 | – | – |
| C[C@@H]1CNc2c(sc3ccc4nc(Oc5nc(Cl)nc6c5COC6)ccc4c23)C(=O)N1 [I-86, (R)-3-((2-chloro-5,7-dihydrofuro[3,4-d]pyrimidin-4-yl)oxy)-10-methyl-9,10,11,12-tetrahydro-8H-[1,4]diazepino[5′,6′:4,5]thieno[3,2-f]quinolin-8-one] | < 100 | – | – | E (mass modification of ≧70%) | < 100 | – | – |
| C[C@@H]1CNc2c(sc3ccc4nc(Oc5nc(Cl)ncc5COC5(C)COC5)ccc4c23)C(=O)N1 [I-103, (R)-3-((2-chloro-5-(((3-methyloxetan-3-yl)oxy)methyl)pyrimidin-4-yl)oxy)-10-methyl-9,10,11,12-tetrahydro-8H-[1,4]diazepino[5′,6′:4,5]thieno[3,2-f]quinolin-8-one] | 101 to 500 | – | – | E (mass modification of ≧70%) | < 100 | – | – |
| COC(=O)c1nc(Cl)cc(Nc2ccc3c(ccc4sc5c(c43)NC[C@@H](C)NC5=O)n2)n1 [I-70, (R)-methyl 4-chloro-6-((10-methyl-8-oxo-9,10,11,12-tetrahydro-8H-[1,4]diazepino[5′,6′:4,5]thieno[3,2-f]quinolin-3-yl)amino)pyrimidine-2-carboxylate] | < 100 | E (key: E: mass modification of ≧70%; F: mass modification of 31-69%; G: mass modification ≦30%) | < 100 | – | – | – | – |
| COC(=O)c1nc(Cl)cc(Oc2ccc3c(ccc4sc5c(c43)NC[C@@H](C)NC5=O)n2)n1 [I-71, (R)-methyl 4-chloro-6-((10-methyl-8-oxo-9,10,11,12-tetrahydro-8H-[1,4]diazepino[5′,6′:4,5]thieno[3,2-f]quinolin-3-yl)oxy)pyrimidine-2-carboxylate] | < 100 | – | – | E (mass modification of ≧70%) | < 100 | – | – |
| C[C@@H]1CNc2c(sc3ccc4nc(Sc5ccnc(Cl)n5)ccc4c23)C(=O)N1 [I-72, (R)-3-((2-chloropyrimidin-4-yl)thio)-10-methy-9,10,11,12-tetrahydro-8H-[1,4]diazepino[5′,6′:4,5]thieno[3,2-f]quinolin-8-one] | > 1000 | – | – | G (mass modification ≦30%) | < 100 | – | – |
| C[C@@H]1CNc2c(sc3ccc4nc(Nc5nc(Cl)ncc5C#N)ccc4c23)C(=O)N1 [I-16, (R)-2-chloro-4-((10-methyl-8-oxo-9,10,11,12-tetrahydro-8H-[1,4]diazepino[5′,6′:4,5]thieno[3,2-f]quinolin-3-yl)amino)pyrimidine-5-carbonitrile] | < 100 | – | – | E (mass modification of ≧70%) | < 100 | – | – |
| C[C@@H]1CNc2c(sc3ccc4nc(Oc5nc(Cl)ncc5CN5CC6CC(C6)C5)ccc4c23)C(=O)N1 [I-85, (R)-3-((5-((3-azabicyclo[3.1.1]heptan-3-yl)methyl)-2-chloropyrimidin-4-yl)oxy)-10-methyl-9,10,11,12-tetrahydro-8H-[1,4]diazepino[5′,6′:4,5]thieno[3,2-f]quinolin-8-one] | – | – | – | E (mass modification of ≧70%) | – | < 100 | 101 to 500 |
| COCc1nc(Cl)cc(Oc2ccc3c(ccc4sc5c(c43)NC[C@@H](C)NC5=O)n2)n1 [I-57, (R)-3-((6-chloro-2-(methoxymethyl)pyrimidin-4-yl)oxy)-10-methyl-9,10,11,12-tetrahydro-8H-[1,4]diazepino[5′,6′:4,5]thieno[3,2-f]quinolin-8-one] | < 100 | – | – | E (mass modification of ≧70%) | < 100 | – | – |
| C[C@@H]1CNc2c(sc3ccc4nc(Oc5nc(Cl)ncc5C5=CCOCC5)ccc4c23)C(=O)N1 [I-124, (R)-3-((2-chloro-5-(3,6-dihydro-2H-pyran-4-yl)pyrimidin-4-yl)oxy)-10-methyl-9,10,11,12-tetrahydro-8H-[1,4]diazepino[5′,6′:4,5]thieno[3,2-f]quinolin-8-one] | 101 to 500 | – | – | E (mass modification of ≧70%) | < 100 | – | – |
| C[C@@H]1CNc2c(sc3ccc4nc(Oc5cc(Cl)ncn5)ccc4c23)C(=O)N1 [I-56, (R)-3-((6-chloropyrimidin-4-yl)oxy)-10-methyl-9,0,11,12-tetrahydro-8H-[1,4]diazepino[5′,6′:4,5]thieno[3,2-f]quinolin-8-one] | < 100 | – | – | E (mass modification of ≧70%) | < 100 | – | – |
| NC[C@@H]1CNc2c(sc3ccc4nc(Nc5cc(F)ncn5)ccc4c23)C(=O)N1 [I-26, (R)-10-(aminomethyl)-3-((6-fluoropyrimidin-4-yl)amino)-9,10,11,12-tetrahydro-8H-[1,4]diazepino[5′,6′:4,5]thieno[3,2-f]quinolin-8-one] | > 1000 | – | – | E (mass modification of ≧70%) | < 100 | – | – |
